# Test results reported in ChEMBL document CHEMBL3112432, “Synthesis of 5α-cholestan-6-one derivatives and their inhibitory activities of NO production in activated microglia: discovery of a novel neuroinflammation inhibitor” (Bioorg Med Chem Lett, 2014).
# Tested on: not listed separately
# Experiment: Antiinflammatory activity in LPS-stimulated mouse BV2 cells assessed as inhibition of NO production at 40 uM after 24 hrs by Griess method relative to control
# Format: functional
# Details: BV-2, 24 h
row,Structure (SMILES),inhibition at 40 µM [%]
1,COC(=O)CC[C@@H](C)[C@H]1CC[C@H]2[C@@H]3[C@H](F)C(=O)[C@H]4C[C@H](O)[C@H](O)C[C@]4(C)[C@H]3CC[C@]12C,72.4
2,COC(=O)CC[C@@H](C)[C@H]1CC[C@H]2[C@@H]3CC(=O)[C@H]4C[C@@H](Br)CC[C@]4(C)[C@H]3CC[C@]12C,41.5
3,COC(=O)CC[C@@H](C)[C@H]1CC[C@H]2[C@@H]3CC(=O)[C@H]4C[C@H](O)[C@@H](F)C[C@]4(C)[C@H]3CC[C@]12C,46.1
4,C=C[C@@H](C)[C@H]1CC[C@H]2[C@@H]3CC(=O)[C@H]4C[C@H](O)[C@H](O)C[C@]4(C)[C@H]3CC[C@]12C,65.7
5,C=C[C@@H](C)[C@H]1CC[C@H]2[C@@H]3CC(=O)[C@H]4C[C@H](O)CC[C@]4(C)[C@H]3CC[C@]12C,24.5
6,COC(=O)CC[C@@H](C)[C@H]1CC[C@H]2[C@@H]3[C@H](F)C(=O)[C@H]4C[C@@H](O)CC[C@]4(C)[C@H]3CC[C@]12C,43.9
7,COC(=O)CC[C@@H](C)[C@H]1CC[C@H]2[C@@H]3[C@H](F)C(=O)[C@H]4C[C@@H](F)CC[C@]4(C)[C@H]3CC[C@]12C,39.1
8,COC(=O)CC[C@@H](C)[C@H]1CC[C@H]2[C@@H]3CC(=O)[C@H]4C[C@H](O)[C@H](O)C[C@]4(C)[C@H]3CC[C@]12C,74.1
9,C[C@H]([C@H](O)CO)[C@H]1CC[C@H]2[C@@H]3[C@H](F)C(=O)[C@H]4C[C@@H](F)CC[C@]4(C)[C@H]3CC[C@]12C,35.9
10,COC(=O)CC[C@@H](C)[C@H]1CC[C@H]2[C@@H]3[C@H](F)C(=O)[C@H]4C[C@H](O)[C@@H](F)C[C@]4(C)[C@H]3CC[C@]12C,70
11,COC(=O)CC[C@@H](C)[C@H]1CC[C@H]2[C@@H]3[C@H](O)C(=O)[C@H]4C[C@H](O)[C@@H](F)C[C@]4(C)[C@H]3CC[C@]12C,75.1
12,C[C@H]([C@H](O)CO)[C@H]1CC[C@H]2[C@@H]3[C@H](O)C(=O)[C@H]4C[C@H](O)CC[C@]4(C)[C@H]3CC[C@]12C,47.1
13,COC(=O)CC[C@@H](C)[C@H]1CC[C@H]2[C@@H]3CC(=O)[C@H]4C[C@@H](Cl)CC[C@]4(C)[C@H]3CC[C@]12C,35.9
14,COC(=O)CC[C@@H](C)[C@H]1CC[C@H]2[C@@H]3[C@H](F)C(=O)[C@H]4C[C@@H]5O[C@@H]5C[C@]4(C)[C@H]3CC[C@]12C,32.6
15,COC(=O)CC[C@@H](C)[C@H]1CC[C@H]2[C@@H]3[C@H](O)C(=O)[C@H]4C[C@@H](F)CC[C@]4(C)[C@H]3CC[C@]12C,64.2
16,C=C[C@@H](C)[C@H]1CC[C@H]2[C@@H]3[C@H](F)C(=O)[C@H]4C[C@H](O)CC[C@]4(C)[C@H]3CC[C@]12C,44.5
17,C=C[C@@H](C)[C@H]1CC[C@H]2[C@@H]3[C@H](O)C(=O)[C@H]4C[C@@H](F)CC[C@]4(C)[C@H]3CC[C@]12C,43.2
18,C=C[C@@H](C)[C@H]1CC[C@H]2[C@@H]3[C@H](O)C(=O)[C@H]4C[C@@H](O)CC[C@]4(C)[C@H]3CC[C@]12C,59.5

# Tested on: not listed separately
# Experiment: Cytotoxicity against mouse BV2 cells assessed as cell viability at 40 uM after 24 hrs by MTT assay relative to control
# Format: cell-based, BV-2
# Details: read-out: Activity
row,Structure (SMILES),"viability at 24 h, 40 µM [%]"
1,COC(=O)CC[C@@H](C)[C@H]1CC[C@H]2[C@@H]3[C@H](F)C(=O)[C@H]4C[C@H](O)[C@H](O)C[C@]4(C)[C@H]3CC[C@]12C,69.9
2,COC(=O)CC[C@@H](C)[C@H]1CC[C@H]2[C@@H]3CC(=O)[C@H]4C[C@@H](Br)CC[C@]4(C)[C@H]3CC[C@]12C,81.5
3,COC(=O)CC[C@@H](C)[C@H]1CC[C@H]2[C@@H]3CC(=O)[C@H]4C[C@H](O)[C@@H](F)C[C@]4(C)[C@H]3CC[C@]12C,95.8
4,C=C[C@@H](C)[C@H]1CC[C@H]2[C@@H]3CC(=O)[C@H]4C[C@H](O)[C@H](O)C[C@]4(C)[C@H]3CC[C@]12C,48.2
5,C=C[C@@H](C)[C@H]1CC[C@H]2[C@@H]3CC(=O)[C@H]4C[C@H](O)CC[C@]4(C)[C@H]3CC[C@]12C,96.4
6,COC(=O)CC[C@@H](C)[C@H]1CC[C@H]2[C@@H]3[C@H](F)C(=O)[C@H]4C[C@@H](O)CC[C@]4(C)[C@H]3CC[C@]12C,23.1
7,COC(=O)CC[C@@H](C)[C@H]1CC[C@H]2[C@@H]3[C@H](F)C(=O)[C@H]4C[C@@H](F)CC[C@]4(C)[C@H]3CC[C@]12C,92.2
8,COC(=O)CC[C@@H](C)[C@H]1CC[C@H]2[C@@H]3CC(=O)[C@H]4C[C@H](O)[C@H](O)C[C@]4(C)[C@H]3CC[C@]12C,81.1
9,C[C@H]([C@H](O)CO)[C@H]1CC[C@H]2[C@@H]3[C@H](F)C(=O)[C@H]4C[C@@H](F)CC[C@]4(C)[C@H]3CC[C@]12C,81.7
10,COC(=O)CC[C@@H](C)[C@H]1CC[C@H]2[C@@H]3[C@H](F)C(=O)[C@H]4C[C@H](O)[C@@H](F)C[C@]4(C)[C@H]3CC[C@]12C,96.2
11,COC(=O)CC[C@@H](C)[C@H]1CC[C@H]2[C@@H]3[C@H](O)C(=O)[C@H]4C[C@H](O)[C@@H](F)C[C@]4(C)[C@H]3CC[C@]12C,80.5
12,C[C@H]([C@H](O)CO)[C@H]1CC[C@H]2[C@@H]3[C@H](O)C(=O)[C@H]4C[C@H](O)CC[C@]4(C)[C@H]3CC[C@]12C,95.7
13,COC(=O)CC[C@@H](C)[C@H]1CC[C@H]2[C@@H]3CC(=O)[C@H]4C[C@@H](Cl)CC[C@]4(C)[C@H]3CC[C@]12C,79
14,COC(=O)CC[C@@H](C)[C@H]1CC[C@H]2[C@@H]3[C@H](F)C(=O)[C@H]4C[C@@H]5O[C@@H]5C[C@]4(C)[C@H]3CC[C@]12C,97.2
15,COC(=O)CC[C@@H](C)[C@H]1CC[C@H]2[C@@H]3[C@H](O)C(=O)[C@H]4C[C@@H](F)CC[C@]4(C)[C@H]3CC[C@]12C,92.4
16,C=C[C@@H](C)[C@H]1CC[C@H]2[C@@H]3[C@H](F)C(=O)[C@H]4C[C@H](O)CC[C@]4(C)[C@H]3CC[C@]12C,76.6
17,C=C[C@@H](C)[C@H]1CC[C@H]2[C@@H]3[C@H](O)C(=O)[C@H]4C[C@@H](F)CC[C@]4(C)[C@H]3CC[C@]12C,87
18,C=C[C@@H](C)[C@H]1CC[C@H]2[C@@H]3[C@H](O)C(=O)[C@H]4C[C@@H](O)CC[C@]4(C)[C@H]3CC[C@]12C,81.8

# Tested on: BV-2
# Experiment: Antiinflammatory activity in LPS-stimulated mouse BV2 cells assessed as inhibition of NO production after 24 hrs by Griess method
# Format: functional, cell-based
# Details: not given
row,Structure (SMILES),inhibition
1,COC(=O)CC[C@@H](C)[C@H]1CC[C@H]2[C@@H]3[C@H](F)C(=O)[C@H]4C[C@H](O)[C@@H](F)C[C@]4(C)[C@H]3CC[C@]12C,Dose-dependent effect
2,COC(=O)CC[C@@H](C)[C@H]1CC[C@H]2[C@@H]3[C@H](O)C(=O)[C@H]4C[C@@H](F)CC[C@]4(C)[C@H]3CC[C@]12C,Dose-dependent effect
